Read-outs that look alike come from different tables or passages of the source.

The test system of data set [1] is SARS-CoV-2.
Data set [2] in a line: in vitro. The conditions noted are these: human.
In data set [3] the test system is SARS-CoV-2. The conditions noted are these: for Calu3 SI CC50/CoV-2 EC50: Table 4.
The subject of another data set is HeLa-ACE2 cells. Nature of the data set: cells. Type of data set: cell-based, human. As to conditions: Homo sapiens, HeLa-ACE2, read-out: HeLa-ACE-2 EC50 [μM] (Geomeans, n ≥ 2).
For data set [4], the system named is SARS-CoV-2. Nature of the data set: microbe, parasite or virus in culture. As to conditions: Severe acute respiratory syndrome coronavirus 2, HeLa-ACE2, 24 h, read-out: CoV-2 EC50 [μM] (Geomeans, n ≥ 2).
Data set [5] can be described thus: in vitro. The conditions noted are these: human. The source holds these as a separate data set.
Experimental: To assess cell viability, 2 μL of 50% Cell-Titer Glo (Promega No G7573) diluted in water was added to the cells and luminescence measured on an EnVision Plate Reader (Perkin Elmer).
Data analysis. […] Primary in vitro screen and the host cell cytotoxicity counter screen data were uploaded to Genedata Screener, Version 16.0.3-Standard. […] For the uninfected host cell cytotoxicity counter screens, 40 μM puromycin (Sigma) was used as the positive (inhibitory) control in HeLa-ACE2, HepG2 and HEK293T cells, and 30 μM puromycin (Sigma) was used as the positive (inhibitory) control for Calu-3 cells. For dose response experiments compounds were tested in technical triplicates on different assay plates and dose curves were fitted with the four parameter Hill Equation. Technical replicate data were analyzed using median condensing. Geometric means and geometric standard deviations are reported for compound activities (EC50s and CC50s) obtained in multiple independent biological experiments. […] Geometric means were calculated by computing the logarithm (base 10) of all values, calculating the mean of these logarithms, and taking the antilog of that mean. Geometric standard deviations were computed by taking the standard deviation of the log-transformed individual values and taking the antilog of that standard deviation. The geometric standard deviation is a unitless ratio and reported as ×÷ instead of +/−.
For data set [6], the system named is SARS-CoV-2. Nature of the data set: microbe, parasite or virus in culture. The conditions noted are these: Severe acute respiratory syndrome coronavirus 2, Calu-3, 48 h, read-out: Calu-3 CoV-2 EC50 [μM].
The mark [7] stands for this setting: CC50 [μM] (Geomeans, n ≥ 2 except where indicated: *n = 1).

One may read the EC50 as the concentration that produces a half-maximal response. Turning to `O=c1nc(NO)ccn1[C@@H]1O[C@H](CO)[C@@H](O)[C@H]1O` [N-hydroxycytidine], in the data set on SARS-CoV-2 [1], the “HeLa-ACE2 CC50/CoV-2 EC50” value is given as above 18.13; the “activity in HeLa-ACE2 infection assay” value is “potent and selective”. The CC50 in the data set “in vitro [2]” (setting [7]) is above 37.5 µM. For the same compound, in the data set on SARS-CoV-2 [3], the “activity in Calu-3 infection assay” value is “potent and selective”. For the same compound, the EC50 in the data set on HeLa-ACE2 cells was above 9.6 µM.
On to `C=C(C)[C@@H]1CC[C@]2(C(=O)OCC(N)(CO)CO)CC[C@]3(C)[C@H](CC[C@@H]4[C@@]5(C)CC[C@H](OC(C)=O)C(C)(C)[C@@H]5CC[C@]43C)[C@@H]12` [NVX-207], for which the “HeLa-ACE2 CC50/CoV-2 EC50” value in the data set with SARS-CoV-2 [1] is 4.37. Further, in “in vitro [2]” (setting [7]), the CC50 stood at 8.19 µM. The results for the EC50 in the data set with SARS-CoV-2 [4] and in the data set with HeLa-ACE2 cells were 1.87 µM and 5.88 µM, respectively.
In “in vitro [5]”, `CC[C@@H]1/C=C/C=C/C[C@H](C)[C@@H](O)[C@](C)(O)C(=O)[C@H](C)[C@@H](O)[C@H](C)C(=O)[C@H](C)[C@@H](O)[C@H](C)/C=C/C(=O)O[C@H]2[C@@H](C)[C@@H](CC1)O[C@]1(O[C@H](C[C@H](C)O)[C@H](C)CC1=O)[C@@H]2C` [Oligomycin B] registered a CC50 at 48 h of 24.5 µM. The EC50 in the data set with SARS-CoV-2 [6] stood at 0.005 µM. Also, the “Calu3 SI CC50/CoV-2 EC50” value in the data set with SARS-CoV-2 [3] was determined as 4539.49.
For `C=CCc1c(OCCCNCc2ccccc2)ccc2c1[nH]c1ccccc12` [YM-75440], in the data set with SARS-CoV-2 [1], the “HeLa-ACE2 CC50/CoV-2 EC50” value was determined as 4.89. Moreover, in the data set “in vitro [2]” (setting [7]), the CC50 was 8.01 µM. The concentration giving a half-maximal response (EC50) in the data set on SARS-CoV-2 [4] is 1.64 µM; in the data set with HeLa-ACE2 cells, above 6.58 µM.
For `CC(CN1CCN(c2cccc3c2CCCN3)CC1)NC(=O)c1ccc(F)cc1` (stereo not shown) [SLV-307] the same measures were 4.15, above 39.8 µM, above 9.59 µM and above 6.7 µM.
Taken in the same sequence, the figures for `CCOc1cc(C(C)(C)C)ccc1C1=N[C@@](C)(c2ccc(Cl)cc2)[C@@](C)(c2ccc(Cl)cc2)N1C(=O)N1CCN(CCCS(C)(=O)=O)CC1` [R-7112] were above 4.61, above 14.9 µM, 3.23 µM and above 9.6 µM.
Taken in the same sequence, the figures for `c1ccc2c(c1)Sc1ccccc1N2CC1CN2CCC1CC2` (stereo not shown) [Mequitazine] were 6.83, 17.3 µM, 2.53 µM and above 9.59 µM.
On to `CN1CCN(C2=Cc3cc(Cl)ccc3/C(=C\C#N)c3ccccc32)CC1` [Alkene Stereoisomer analog of Rilapine], for which the “HeLa-ACE2 CC50/CoV-2 EC50” value in the data set on SARS-CoV-2 [1] was above 13.32. This compound returned a CC50 in the data set “in vitro [2]” (setting [7]) above 39.8 µM. Besides, the concentration for a half-maximal effect (EC50) with SARS-CoV-2 [4] was 2.99 µM; with HeLa-ACE2 cells it was above 9.59 µM.
For `COc1cc2c(Nc3ccc(Cl)c(Cl)c3F)ncnc2cc1OC[C@@H]1C[C@@H]2CN(C)C[C@@H]2C1` [tesevatinib] the same measures were above 8.46, above 20.6 µM, 2.44 µM and above 8.16 µM.
As for `CN(C)CCC(Oc1ccc2c(c1)C(=O)CC(c1ccccc1)O2)c1ccccc1` (stereo not shown) [RFM-007-454-4], the “HeLa-ACE2 CC50/CoV-2 EC50” value in the data set with SARS-CoV-2 [1] is above 6.13. In “in vitro [2]” (setting [7]), this compound came in with a CC50 above 23.5 µM. Besides, the figures for the EC50 in the data set on SARS-CoV-2 [4] and in the data set with HeLa-ACE2 cells were 3.83 µM and above 9.59 µM, respectively.
Taken in the same sequence, the figures for `COc1cc(C(C)=O)ccc1OCCCN1CCC(C(O)(c2ccc(F)cc2)c2ccc(F)cc2)CC1` [AHR-5333] were 5.44, above 24.7 µM, above 4.53 µM and above 7.1 µM.
Take `C=Cc1cc(C(=O)Nc2ccc(C(=N)N)cc2)c(-c2ccc(C(=O)NCC3CC3)nc2C(=O)O)cc1OC` [Avoralstat]: the CC50 in the data set “in vitro [5]” is above 29.9 µM. Also, in the data set “in vitro [2]” (HeLa-ACE2 Uninfected Tox CC50 [μM], Table 4, aggregated data, Geomean, n = 3), the CC50 was above 39.8 µM. Further, in the data set on SARS-CoV-2 [3], the “activity in Calu-3 infection assay” value is “active” and the “Calu3 SI CC50/CoV-2 EC50” value is above 77.
`CC1=C(c2ccc(O)cc2)[C@H](c2ccc(OCCN3CCCCC3)cc2)Oc2cc(O)ccc21` [ACOLBIFENE]: the “HeLa-ACE2 CC50/CoV-2 EC50” value in the data set with SARS-CoV-2 [1] was 2.8. The CC50 in the data set “in vitro [2]” (setting [7]) turned out to be 13.4 µM. Moreover, the figures for the EC50 with SARS-CoV-2 [4] and in the data set with HeLa-ACE2 cells were 4.79 µM and above 9.59 µM, respectively.
Taken in the same sequence, the figures for `CC(C)(/C=N/OCC(=O)O)Cc1c(SC(C)(C)C)c2cc(OCc3ccc4ccccc4n3)ccc2n1Cc1ccc(Cl)cc1` [A 81834] were above 3.02, above 22.6 µM, above 7.47 µM and above 9.59 µM.
Taken in the same sequence, the figures for `CN1CCN(C2Cc3cc(Cl)ccc3Sc3ccccc32)CC1` (stereo not shown) [OCTOCLOTHEPIN analog] were above 11.42, above 28.4 µM, 2.49 µM and above 8.73 µM.
For the compound `CCOC(=O)/C=C/[C@H](C[C@@H]1CCNC1=O)NC(=O)[C@@H](CC(=O)[C@@H](NC(=O)c1cc(C)on1)C(C)C)Cc1ccc(F)cc1` [Rupinavir], in the data set with SARS-CoV-2 [1], the “HeLa-ACE2 CC50/CoV-2 EC50” value amounted to 4.15. This compound also gave a CC50 in “in vitro [2]” (setting [7]) above 39.8 µM. Also, the EC50 in the data set on SARS-CoV-2 [4] and in the data set on HeLa-ACE2 cells was above 9.59 µM throughout.

(Values after patent US20230346820A1, “METHODS AND COMPOSITIONS FOR THE TREATMENT OF SARS-COV-2” (priority 2020, published 2023).)
